Data reported in publication PMC4457528, “Identification of Novel Small Molecule Inhibitors of Oncogenic RET Kinase” (PLoS ONE, 2015).
Where two headings read alike, the source gives them in different places.

Tests used:
Experiment in all cases: KinomeScan kinase panel, single concentration 10 µM
Type in all cases: binding
KinomeScan kinase panel [1] = target: T1, KinomeScan kinase panel (Homo sapiens, UniProt O15075); conditions: DCAMKL1, 10 µM
T1 construct: purchased DiscoveRx (KinomeScan)

KinomeScan kinase panel [2] = target: T2, KinomeScan kinase panel (Homo sapiens, UniProt O15530); conditions: PDPK1, 10 µM; read-out: score (%)
T2 construct: purchased DiscoveRx (KinomeScan)
T2 sequence (O15530 1-556): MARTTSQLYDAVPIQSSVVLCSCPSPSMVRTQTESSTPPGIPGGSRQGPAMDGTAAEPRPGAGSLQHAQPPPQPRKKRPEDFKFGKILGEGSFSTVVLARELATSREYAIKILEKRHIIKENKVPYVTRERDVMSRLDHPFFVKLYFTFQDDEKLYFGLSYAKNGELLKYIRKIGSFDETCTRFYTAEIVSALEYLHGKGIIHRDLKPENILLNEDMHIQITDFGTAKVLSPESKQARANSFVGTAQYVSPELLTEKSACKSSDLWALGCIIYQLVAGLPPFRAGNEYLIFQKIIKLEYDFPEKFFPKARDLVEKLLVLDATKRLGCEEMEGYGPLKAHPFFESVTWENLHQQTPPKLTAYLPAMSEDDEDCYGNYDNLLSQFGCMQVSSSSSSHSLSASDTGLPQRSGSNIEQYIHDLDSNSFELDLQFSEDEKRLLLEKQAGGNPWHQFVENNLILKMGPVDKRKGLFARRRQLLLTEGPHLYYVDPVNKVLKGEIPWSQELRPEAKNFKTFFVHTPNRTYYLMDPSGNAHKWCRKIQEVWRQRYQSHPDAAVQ

KinomeScan kinase panel [3] = target: T3, KinomeScan kinase panel (Homo sapiens, UniProt P04626); conditions: ERBB2, 10 µM; read-out: score (%)
T3 construct: purchased DiscoveRx (KinomeScan)
T3 sequence (P04626 23-1255): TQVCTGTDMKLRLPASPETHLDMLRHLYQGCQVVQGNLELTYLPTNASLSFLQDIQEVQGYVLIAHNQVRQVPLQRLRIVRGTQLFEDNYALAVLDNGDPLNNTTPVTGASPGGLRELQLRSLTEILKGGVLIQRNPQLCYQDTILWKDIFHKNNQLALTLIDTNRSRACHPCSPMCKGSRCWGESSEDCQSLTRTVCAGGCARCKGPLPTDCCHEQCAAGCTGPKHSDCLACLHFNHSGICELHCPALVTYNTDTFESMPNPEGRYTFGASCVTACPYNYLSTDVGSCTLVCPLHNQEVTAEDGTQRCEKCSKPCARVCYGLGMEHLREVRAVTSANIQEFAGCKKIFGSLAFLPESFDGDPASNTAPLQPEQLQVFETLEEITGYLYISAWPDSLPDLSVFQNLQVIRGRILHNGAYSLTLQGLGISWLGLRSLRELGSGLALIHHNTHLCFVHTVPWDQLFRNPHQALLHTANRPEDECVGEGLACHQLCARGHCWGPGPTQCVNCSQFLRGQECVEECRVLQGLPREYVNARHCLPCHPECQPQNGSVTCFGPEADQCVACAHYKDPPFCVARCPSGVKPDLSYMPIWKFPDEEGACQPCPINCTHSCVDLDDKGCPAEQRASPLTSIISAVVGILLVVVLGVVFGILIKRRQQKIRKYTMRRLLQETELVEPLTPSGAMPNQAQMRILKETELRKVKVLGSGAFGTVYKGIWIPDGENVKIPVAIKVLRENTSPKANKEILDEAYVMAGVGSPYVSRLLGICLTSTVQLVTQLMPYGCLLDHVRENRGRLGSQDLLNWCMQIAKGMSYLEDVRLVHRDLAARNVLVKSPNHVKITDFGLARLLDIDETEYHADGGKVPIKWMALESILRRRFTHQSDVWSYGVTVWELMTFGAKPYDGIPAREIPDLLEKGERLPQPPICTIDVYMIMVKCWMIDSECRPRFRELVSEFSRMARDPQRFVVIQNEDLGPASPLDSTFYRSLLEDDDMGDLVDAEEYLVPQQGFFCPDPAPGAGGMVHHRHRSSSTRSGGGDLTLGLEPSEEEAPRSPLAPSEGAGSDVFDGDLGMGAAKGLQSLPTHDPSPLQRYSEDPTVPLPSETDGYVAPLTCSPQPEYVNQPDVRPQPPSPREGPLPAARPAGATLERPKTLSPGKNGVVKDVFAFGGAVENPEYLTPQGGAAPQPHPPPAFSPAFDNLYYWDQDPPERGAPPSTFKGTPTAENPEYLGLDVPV

KinomeScan kinase panel [4] = target: T4, KinomeScan kinase panel (Homo sapiens, UniProt P10721, V559D/V654A); conditions: KIT(V559D.V654A), 10 µM; read-out: score (%)
T4 construct: purchased DiscoveRx (KinomeScan)
T4 sequence (P10721 26-976 V559D/V654A): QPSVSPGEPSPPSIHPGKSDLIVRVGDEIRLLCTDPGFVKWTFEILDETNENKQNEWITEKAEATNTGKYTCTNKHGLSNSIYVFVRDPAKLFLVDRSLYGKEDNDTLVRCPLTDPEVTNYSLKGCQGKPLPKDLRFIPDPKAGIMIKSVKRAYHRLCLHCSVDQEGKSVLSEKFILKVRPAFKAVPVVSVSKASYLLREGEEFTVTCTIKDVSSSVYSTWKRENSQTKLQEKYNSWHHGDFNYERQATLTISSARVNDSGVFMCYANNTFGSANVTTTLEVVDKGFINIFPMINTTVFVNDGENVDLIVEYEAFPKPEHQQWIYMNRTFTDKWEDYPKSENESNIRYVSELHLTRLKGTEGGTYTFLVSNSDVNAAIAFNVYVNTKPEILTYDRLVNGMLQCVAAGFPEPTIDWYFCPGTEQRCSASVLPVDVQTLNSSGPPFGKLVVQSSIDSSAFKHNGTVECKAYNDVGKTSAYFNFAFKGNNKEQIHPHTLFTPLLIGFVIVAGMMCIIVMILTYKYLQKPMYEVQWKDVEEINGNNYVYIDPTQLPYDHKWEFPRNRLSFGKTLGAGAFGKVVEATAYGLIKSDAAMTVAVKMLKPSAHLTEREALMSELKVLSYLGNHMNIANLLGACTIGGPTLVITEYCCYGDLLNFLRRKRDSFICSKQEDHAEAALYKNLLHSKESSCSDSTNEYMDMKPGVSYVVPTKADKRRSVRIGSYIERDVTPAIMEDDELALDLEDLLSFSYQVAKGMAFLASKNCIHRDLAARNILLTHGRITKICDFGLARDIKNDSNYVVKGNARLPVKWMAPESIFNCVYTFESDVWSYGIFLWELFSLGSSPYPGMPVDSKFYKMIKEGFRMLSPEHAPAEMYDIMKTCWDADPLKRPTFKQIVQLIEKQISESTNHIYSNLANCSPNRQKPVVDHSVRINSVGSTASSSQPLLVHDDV

KinomeScan kinase panel [5] = target: T5, KinomeScan kinase panel (Homo sapiens, UniProt P21709); conditions: EPHA1, 10 µM; read-out: score (%)
T5 construct: purchased DiscoveRx (KinomeScan)
T5 sequence (P21709 26-976): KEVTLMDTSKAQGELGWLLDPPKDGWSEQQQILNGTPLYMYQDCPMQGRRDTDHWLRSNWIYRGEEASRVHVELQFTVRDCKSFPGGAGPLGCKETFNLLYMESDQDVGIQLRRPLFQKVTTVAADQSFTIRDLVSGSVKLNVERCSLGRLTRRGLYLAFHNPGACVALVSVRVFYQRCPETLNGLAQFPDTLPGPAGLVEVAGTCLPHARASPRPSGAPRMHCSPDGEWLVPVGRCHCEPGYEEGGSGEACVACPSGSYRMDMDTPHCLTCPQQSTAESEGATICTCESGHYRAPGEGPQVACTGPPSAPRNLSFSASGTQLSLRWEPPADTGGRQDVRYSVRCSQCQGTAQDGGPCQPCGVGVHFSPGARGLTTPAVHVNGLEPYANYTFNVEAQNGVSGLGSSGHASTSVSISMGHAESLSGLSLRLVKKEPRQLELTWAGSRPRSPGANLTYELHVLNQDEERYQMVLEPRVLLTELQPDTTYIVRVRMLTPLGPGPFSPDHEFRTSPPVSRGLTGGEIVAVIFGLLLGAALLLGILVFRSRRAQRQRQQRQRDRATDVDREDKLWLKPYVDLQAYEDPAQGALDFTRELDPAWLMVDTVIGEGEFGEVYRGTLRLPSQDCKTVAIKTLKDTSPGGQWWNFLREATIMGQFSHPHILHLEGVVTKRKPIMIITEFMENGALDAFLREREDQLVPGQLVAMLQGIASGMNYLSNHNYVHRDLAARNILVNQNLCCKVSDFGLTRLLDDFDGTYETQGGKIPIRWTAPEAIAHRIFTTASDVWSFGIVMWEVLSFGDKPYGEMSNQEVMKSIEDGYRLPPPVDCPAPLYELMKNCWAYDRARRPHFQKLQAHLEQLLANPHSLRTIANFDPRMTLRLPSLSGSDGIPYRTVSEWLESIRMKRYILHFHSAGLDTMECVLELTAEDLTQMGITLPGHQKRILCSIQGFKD

KinomeScan kinase panel [6] = target: T6, KinomeScan kinase panel (Homo sapiens, UniProt P78362); conditions: read-out: score (%)
T6 construct: purchased DiscoveRx (KinomeScan)
T6 sequence (P78362 whole entry): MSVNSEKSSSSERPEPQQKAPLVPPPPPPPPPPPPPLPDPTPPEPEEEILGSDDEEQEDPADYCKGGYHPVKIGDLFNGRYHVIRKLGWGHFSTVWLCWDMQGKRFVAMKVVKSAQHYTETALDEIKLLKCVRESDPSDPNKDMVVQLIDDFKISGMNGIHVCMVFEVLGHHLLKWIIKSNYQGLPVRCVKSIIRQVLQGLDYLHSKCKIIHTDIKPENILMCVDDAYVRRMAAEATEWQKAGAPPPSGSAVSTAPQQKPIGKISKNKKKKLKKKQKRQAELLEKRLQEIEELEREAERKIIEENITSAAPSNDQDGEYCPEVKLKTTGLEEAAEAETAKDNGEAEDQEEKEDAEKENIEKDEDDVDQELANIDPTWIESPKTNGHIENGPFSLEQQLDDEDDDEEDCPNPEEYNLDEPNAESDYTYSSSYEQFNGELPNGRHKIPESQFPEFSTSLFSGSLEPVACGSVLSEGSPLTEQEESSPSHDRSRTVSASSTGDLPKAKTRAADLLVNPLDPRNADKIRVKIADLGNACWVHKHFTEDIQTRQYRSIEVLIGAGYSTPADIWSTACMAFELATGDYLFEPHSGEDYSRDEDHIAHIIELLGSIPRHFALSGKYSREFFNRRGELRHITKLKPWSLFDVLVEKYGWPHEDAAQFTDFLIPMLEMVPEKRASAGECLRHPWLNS

KinomeScan kinase panel [7] = target: T7, KinomeScan kinase panel (Homo sapiens, UniProt Q13546); conditions: read-out: score (%)
T7 construct: purchased DiscoveRx (KinomeScan)
T7 sequence (Q13546 1-671): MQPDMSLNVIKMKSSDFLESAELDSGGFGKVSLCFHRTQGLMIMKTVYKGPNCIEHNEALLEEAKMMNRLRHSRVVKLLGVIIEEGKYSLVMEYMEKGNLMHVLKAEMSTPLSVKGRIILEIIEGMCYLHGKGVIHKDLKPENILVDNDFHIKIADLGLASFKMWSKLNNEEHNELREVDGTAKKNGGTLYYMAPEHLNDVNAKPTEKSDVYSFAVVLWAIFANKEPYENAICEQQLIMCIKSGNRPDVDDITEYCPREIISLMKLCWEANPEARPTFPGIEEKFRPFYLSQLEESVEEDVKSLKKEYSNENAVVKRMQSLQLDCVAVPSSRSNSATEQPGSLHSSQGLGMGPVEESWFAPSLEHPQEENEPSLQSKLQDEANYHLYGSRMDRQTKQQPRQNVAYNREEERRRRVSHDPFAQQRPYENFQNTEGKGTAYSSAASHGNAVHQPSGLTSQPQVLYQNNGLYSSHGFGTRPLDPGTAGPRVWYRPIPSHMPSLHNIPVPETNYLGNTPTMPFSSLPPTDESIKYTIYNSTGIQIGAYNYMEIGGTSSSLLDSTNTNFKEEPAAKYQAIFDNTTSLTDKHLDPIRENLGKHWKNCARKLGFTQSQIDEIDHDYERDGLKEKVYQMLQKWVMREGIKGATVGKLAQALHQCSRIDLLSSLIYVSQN

T1 sequence (O15075 whole entry): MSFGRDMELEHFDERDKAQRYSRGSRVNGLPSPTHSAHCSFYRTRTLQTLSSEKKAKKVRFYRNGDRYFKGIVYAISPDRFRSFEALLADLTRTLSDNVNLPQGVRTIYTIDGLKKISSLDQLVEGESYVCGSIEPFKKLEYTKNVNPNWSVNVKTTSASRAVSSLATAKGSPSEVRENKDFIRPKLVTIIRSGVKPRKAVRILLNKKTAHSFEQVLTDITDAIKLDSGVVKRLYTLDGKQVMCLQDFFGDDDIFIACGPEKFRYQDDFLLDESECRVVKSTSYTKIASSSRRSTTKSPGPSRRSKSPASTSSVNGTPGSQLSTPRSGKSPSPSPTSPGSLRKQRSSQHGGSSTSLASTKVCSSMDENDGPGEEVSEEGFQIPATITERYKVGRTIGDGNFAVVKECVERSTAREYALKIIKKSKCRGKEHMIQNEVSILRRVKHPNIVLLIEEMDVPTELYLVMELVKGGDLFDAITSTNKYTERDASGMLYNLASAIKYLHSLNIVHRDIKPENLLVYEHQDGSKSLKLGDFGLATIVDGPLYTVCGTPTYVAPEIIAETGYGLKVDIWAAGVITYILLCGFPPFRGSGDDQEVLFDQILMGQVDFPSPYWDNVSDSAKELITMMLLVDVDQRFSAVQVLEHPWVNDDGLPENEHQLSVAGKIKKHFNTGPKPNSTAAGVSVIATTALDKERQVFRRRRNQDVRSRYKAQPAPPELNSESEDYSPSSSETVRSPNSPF

Row | SMILES | score (%) (KinomeScan kinase panel [1]) | remaining binding at 10 µM (KinomeScan kinase panel [2]) [%] | remaining binding at 10 µM (KinomeScan kinase panel [3]) [%] | remaining binding at 10 µM (KinomeScan kinase panel [4]) [%] | remaining binding at 10 µM (KinomeScan kinase panel [5]) [%] | remaining binding at 10 µM (KinomeScan kinase panel [6]; kinase SRPK2, 10 µM) [%] | remaining binding at 10 µM (KinomeScan kinase panel [7]; RIPK1, 10 µM) [%] | remaining binding at 10 µM (KinomeScan kinase panel [6]; SRPK2, 10 µM) [%] | remaining binding at 10 µM (KinomeScan kinase panel [7]; kinase RIPK1, 10 µM) [%]
1 | CCN1CCN(Cc2ccc(NC(=O)c3ccc(C)c(NC(=O)c4cncc(-c5cccs5)c4)c3)cc2C(F)(F)F)CC1 [ALW-II-41-27] | nb (Hits values higher than 30% were considered negative (no binding: nb)) | > 30 | 11 | 5.4 | 3.8 | > 30 | 0.45 | – | –
2 | CCN1CCN(Cc2ccc(NC(=O)c3ccc(C)c(/C=C/c4cnc5[nH]ccc5c4Cl)c3)cc2C(F)(F)F)CC1 [HG-6-63-01, (E)-3-(2-(4-chloro-1H-pyrrolo[2,3-b]pyridin-5-yl)vinyl)-N-(4-((4-ethylpiperazin-1-yl)methyl)-3-(trifluoromethyl)phenyl)-4-methylbenzamide] | nb (Hits values higher than 30% were considered negative (no binding: nb)) | > 30 | 21 | 0.9 | 5.5 | – | 0.05 | 28 | –
3 | CCN1CCN(Cc2ccc(NC(=O)c3ccc(C)c(C#Cc4cccnc4)c3)cc2C(F)(F)F)CC1 [XMD15-44] | nb (Hits values higher than 30% were considered negative (no binding: nb)) | 84 | 0.5 | 4.2 | 1.2 | 81 | – | – | 0.05
